Reference: US4826875A, “Pharmaceutical compositions containing levodopa methyl ester, preparation and therapeutic applications thereof” (priority 1986, dated 1989)
Where two headings read alike, the source gives them in different places. Each block holds one molecule with its values, some of them ahead of it.

How the values were obtained:
Solubility = format: physicochemical; conditions: aqueous compositions
clinical = experiment: clinical; parameters: species or system patients; conditions: human, in vivo, po
Text: The pharmaceutical composition as per Example 1 above has been orally administered to parkinsonian patients manifesting the on-off phenomenon, in order to evaluate the bioavailability and the clinical effect of LDME in this formulation in comparison with levodopa.
(§1) As previously illustrated, patients manifesting the on-off phenomenon alternate between periods when parkinsonian signs are relatively severe and intervals when parkinsonism is largely, if not completely, replaced by unvoluntary movements.
The absorption of LDME was infact very rapid, reaching the maximum concentration peak at 40-45 minutes from the administration.
Levodopa plasmatic levels after single oral administration
of corresponding doses of active principle (mg 200) re-
spectively of LDME and levodopa in two patients.

[1] = test system: parkinsonian patients manifesting the on-off phenomenon; experiment: Clinical effect of oral LDME (Example 1 composition) vs levodopa in parkinsonian patients manifesting the on-off phenomenon; format: in vivo
Text: as §1

reserpine-treated cats = conditions: cited from earlier work
[2] = other experimental patterns; cited from earlier work
[3] = Absorption by rectal route
Parkinson's disease = conditions: cited from earlier work
[4] = cited from earlier work
[5] = in vivo

solubility (Solubility): high solubility | absorption (clinical): very rapid | time of maximum concentration peak from the administration (clinical): 40 to 45 min | Levodopa plasmatic levels (clinical; 0 min): 0 µg/mL | Levodopa plasmatic levels (clinical; 330 min): 0.20 µg/mL | dyskinesias at the moment of the appearance of the mobility ("on" phase) ([1]; composition of Example 1, subjects presenting "long-term syndrome", preliminary trials): does not seem to induce dyskinesias
Structure (SMILES): COC(=O)[C@@H](N)Cc1ccc(O)c(O)c1 [LDME, levodopa methyl ester]
duration of action ("on" period duration) in respect to levodopa ([1]; composition of Example 1): superior | onset of the therapeutic effect ([1]; composition of Example 1): 20 to 30 min | effects compared with levodopa (brain catecholamine levels, conditioned avoidance response) (reserpine-treated cats): causes the same effects as levodopa | activity compared with the starting compound (levodopa) [2]: as active as the starting compound | rectal absorption / plasma levels by rectal administration [3]: detectable plasma levels sufficient to assure a therapeutic effect

Structure (SMILES): CC(C)C[C@H]1C(=O)N2CCC[C@H]2[C@]2(O)O[C@](NC(=O)[C@@H]3C=C4c5cccc6[nH]c(Br)c(c56)C[C@H]4N(C)C3)(C(C)C)C(=O)N12 [bromocriptine]
prevention or reduction of response fluctuations (Parkinson's disease; alternative therapies with dopaminergic drugs): do not give actual advantages in prevention or reduction of response fluctuations

Levodopa plasmatic levels (clinical; 0 min): 0 µg/mL | Levodopa plasmatic levels (clinical; 0.25 h): 0.35 µg/mL | Levodopa plasmatic levels (clinical; 0.5 h): 0.66 µg/mL | Levodopa plasmatic levels (clinical; 0.75 h): 0.88 µg/mL | Levodopa plasmatic levels (clinical; 1 h): 1.15 µg/mL | Levodopa plasmatic levels (clinical; 80 min): 1.67 µg/mL | Levodopa plasmatic levels (clinical; 100 min): 1.39 µg/mL | Levodopa plasmatic levels (clinical; 2 h): 1.35 µg/mL | Levodopa plasmatic levels (clinical; 140 min): 1.05 µg/mL | Levodopa plasmatic levels (clinical; 160 min): 0.82 µg/mL | Levodopa plasmatic levels (clinical; 3 h): 0.80 µg/mL | Levodopa plasmatic levels (clinical; 3.5 h): 0.58 µg/mL | Levodopa plasmatic levels (clinical; 4 h): 0.45 µg/mL | Levodopa plasmatic levels (clinical; 4.5 h): 0.38 µg/mL | Levodopa plasmatic levels (clinical; 5 h): 0.17 µg/mL | concentration at 0.25 h (clinical; Levodopa plasmatic levels): 310 ng/mL | concentration at 0.5 h (clinical; Levodopa plasmatic levels): 1050 ng/mL | concentration at 0.75 h (clinical; Levodopa plasmatic levels): 1410 ng/mL | concentration at 1 h (clinical; Levodopa plasmatic levels): 1130 ng/mL | concentration at 80 min (clinical; Levodopa plasmatic levels): 1470 ng/mL | concentration at 100 min (clinical; Levodopa plasmatic levels): 1170 ng/mL | concentration at 2 h (clinical; Levodopa plasmatic levels): 930 ng/mL | concentration at 140 min (clinical; Levodopa plasmatic levels): 1030 ng/mL | concentration at 160 min (clinical; Levodopa plasmatic levels): 820 ng/mL | concentration at 3 h (clinical; Levodopa plasmatic levels): 650 ng/mL | concentration at 3.5 h (clinical; Levodopa plasmatic levels): 700 ng/mL | concentration at 4 h (clinical; Levodopa plasmatic levels): 490 ng/mL | concentration at 4.5 h (clinical; Levodopa plasmatic levels): 350 ng/mL | concentration at 5 h (clinical; Levodopa plasmatic levels): 280 ng/mL | concentration at 5.5 h (clinical; Levodopa plasmatic levels): 420 ng/mL | rectal absorption / plasma levels by rectal administration [5]: not absorbed by rectal mucosa
Structure (SMILES): N[C@@H](Cc1ccc(O)c(O)c1)C(=O)O [levodopa, (-)-3-(3,4-dihydroxyphenyl)-L-alanine]
solubility [4]: slightly soluble | duration of efficacy ("end-of-dose deterioration") (Parkinson's disease; chronic treatment per os): 3 to 4 h | unwanted effects (Parkinson's disease; chronic treatment per os): abnormal unvoluntary movements | clinical response (Parkinson's disease; constant intravenous infusion): a stable clinical response can be maintained for hours
